In patent publication US5691310A, “Methods of treatment using proANF peptides” (priority 1995, dated 1997):

Columns and labels:
[1] = test system: particulate guanylate cyclase; test: particulate guanylate cyclase activity in the kidney; type: biochemical; settings: 1 μM; whole kidney homogenates, renal cortical and medullary membranes, isolated distal nephron
Description: Testing is also carried out to determine biologic effects of these peptides by measuring their effects on particulate guanylate activity in the kidney.

[2] = test system: rats who have acute renal failure; test: blood urea nitrogen in rats with acute renal failure; type: in vivo, rat; settings: over three days
Excerpt: FIG. 6. ProANF 31-67 (i.e., vessel dilator) prevents the rise in blood urea nitrogen (BUN) in rats who have acute renal failure.

[3] = test system: healthy human subjects; test: infusion into healthy human subjects; type: in vivo; settings: healthy humans
Description: Infusion of these peptides into healthy human subjects was performed as follows: Human pro-ANF 1-30, pro-ANF 31-67, and pro-ANF 79-98, and hANF (i.e., pro-ANF […], were synthesized by Peninsula Laboratories (Belmont, Calif.). High pressure liquid chromatography (HPLC) analysis was performed on a sample of each of the four peptides to ensure purity. The peptides were dissolved in a sterile 0.9% saline solution to a concentration of 100 μg/ml and dispensed in 2 and 5 ml aliquots into sealed sterile vials. At the time of dispensing, randomly selected vials were tested for pyrogens and sterility. Prior to labeling the vials, the actual peptide content of the dispensed solution were determined by direct radioimmunoassay to account for any possible absorption of the respective peptides to the walls of the vials. All vials were then stored at -80° C. until thawed for individual study.
Normal healthy subjects were chosen on the basis of age (between 20 and 50 years), physical examination and biochemical screenings. The subjects consumed their normal diets prior to testing. The subjects fasted overnight and were tested in the morning in the seated position. Intravenous catheters were placed bilaterally for the administration of pro-hANF 1-30, pro-hANF 31-67, pro-hANF 79-98 and hANF [pro-hANF 99-126] and for blood sampling. After completion of a 45-minute equilibration period, there were three 60-minute phases of the study: baseline, experimental infusion (60 minutes) and recovery (3 hours). The baseline phase consisted of two 30 minute urine collection periods, the experimental phase consisted of three 20 minute urine and plasma collection periods, and the recovery phase consisted of two 30 minute urine and plasma collection periods each hour for three hours post-infusion. Urine output was replaced on a milliliter per milliliter basis throughout the study by administering oral water or orange juice. Urine samples were obtained by voiding at the designated collection periods.
The 36 subjects were divided into 6 groups. One group (i.e., the control group) received a placebo infusion of 0.9% sodium chloride during the experimental infusion phase. […] The four remaining groups of six subjects each received human pro-hANF 1-30, pro-hANF 31-67, pro-hANF 79-98 and hANF. The four groups received the peptides by continuous infusion at the rate of 0.1 μg/kg per minute. The volume administered per hour during the experimental infusion phase was 10 ml for all four peptides and the placebo. All infusions were given by a constant-rate infusion pump, with the final concentrations of prohANFs adjusted for the subjects' body weight. The subjects heart rate and cuff blood pressure were taken at 5 minute intervals throughout the study. The excreted urine was analyzed for sodium concentration.

[4] = test system: Munich-Wistar rats; test: rat clearance model (diuresis and salt excretion); type: in vivo
Description: The same three peptides and ANF from Example I are tested using the rat clearance model. Six control rats and six experimental Munich-Wistar rats, each weighing 150-200 grams, are used for each peptide, with catheters being placed in both jugular veins and in the femoral artery. The ureters are cannulated for simultaneous urine collections with femoral artery blood collections.
After inserting the catheters, a stabilization of one hour is allowed. A 10 μg/kg bolus of each of the respective human sequences of the peptides is given via the jugular vein to six experimental rats followed by a sustaining infusion of 0.1 μg/kg/min for 60 minutes. Blood and urine samples are collected at 20 minute intervals during this 60 minute infusion. In both the control and experimental animals, hematocrits and plasma sodium values remained at the same levels pre- and post-infusion while blood pressure decreased with each of these peptides (see Attachment B).

[5] = overcoming the negative ionotropic effect of Verapamil
[6] = test system: porcine aorta; test: vasodilation of porcine aortic strips preconstricted with 0.3 micromolar phenylephrine; set-up: species or system pig
Description: 30 Kg pigs are sacrificed, and aortic strips are harvested. The strips are attached to F-60 transducer (Narco-BioSystems, Houston, Tex.) and attached to a physiography (Narco-BioSystems) while being submerged in a muscle tissue bath comprising a Krebs Ringer solution at 37° C., with 95% 02 -5% CO2, bubbled through the bath. Percentage vasodilation is measured versus time (as reported in FIG. 1) after preconstriction with 0.3 micromolar phenylephrine.

[7] = test system: renal medullary Na+-K+-ATPase; test: inhibition of renal medullary Na+-K+-ATPase activity; type: biochemical; settings: 10^-11 M
[8] = test system: human subjects with class II New York Heart Association congestive heart failure; test: infusion into human subjects with congestive heart failure; type: in vivo
Description: Human proANF's 1-30, 31-67, 79-98, and 99-126 (i.e., ANF) were infused into human subjects with class II New York Heart Association congestive heart failure. An identical protocol to that used in example V where these peptides were infused into healthy human subjects was utilized. (See Attachment C for a detailed description of this protocol). The human subjects with congestive heart failure received an identical dose (0.1 μg/kg body wt/minute for 60 minutes) that the healthy human subjects received.

[9] = test system: particulate guanylate cyclase; test: cyclic GMP / particulate guanylate cyclase activation in cultured smooth muscle cells and porcine aorta; type: cell-based; settings: cultured smooth muscle cells
[10] = congestive heart failure, 0.1 μg/kg body wt/minute

H-EVVPPQVLSEPNEEAGAALSPLPEVPPWTGEVSPAQR-OH [proANF 31-67, H-Glu-Val-Val-Pro-Pro-Gln-Val-Leu-Ser-Glu-Pro-Asn-Glu-Glu-Ala-Gly-Ala-Ala- Leu-Ser-Pro-Leu-Pro-Glu-Val-Pro-Pro-Trp-Thr-Gly-Glu-Val-Ser-Pro-Ala-Gln-Arg-OH]
particulate guanylate cyclase activity [1]: enhance particulate guanylate cyclase | rise in blood urea nitrogen (BUN) [2]: completely blocked the increase in BUN | increase of urine flow [3]: 4-12 fold | urine volume / urine flow (in words) ([3]; 100 ng/kg body wt per minute for 1 hour i.v.): increase in urine volume | sodium excretion compared to baseline (in words) ([3]; 100 ng/kg body wt per minute for 60 minutes): significantly (P<0.05) increased sodium excretion | systolic and diastolic blood pressures ([3]; 100 ng/kg/min i.v. for 60 minutes): decreasing systolic and diastolic blood pressures | UNa V, urinary sodium excretion rate ([4]; period A, control period (before peptide)): 144.08 ± 56.75 μeq-min^-1 -g kidney wt^-1 | UNa V, urinary sodium excretion rate ([4]; period B, 1st 60min experimental period, 10 μg/kg bolus then 0.1 μg/kg/min): 1,057.68 ± 371.69 μeq-min^-1 -g kidney wt^-1 | UNa V, urinary sodium excretion rate ([4]; period C, 2nd 60min experimental period): 1,077.63 ± 306.10 μeq-min^-1 -g kidney wt^-1 | negative ionotropic (slowing heartbeat) effect of Verapamil [5]: can overcome the negative ionotropic (slowing heartbeat) effect | increase in cyclic GMP levels over baseline levels ([6]; associated with vasodilation of porcine aorta): four-to-five | vasodilation ([6]; porcine aorta): cause vasodilation | inhibition of renal medullary Na+-K+-ATPase activity [7]: Inhibition of renal medullary Na+-K+-ATPase activity | urine output at 3 hours after stopping the infusion relative to pre-infusion values ([8]; congestive heart failure): 10 fold | diuretic properties (in words) ([8]; congestive heart failure patients): stronger diuretic properties than ANF | urine output in 20 minutes of infusion [8, 10]: doubled | urine output increase at the end of the 60 minute infusion [8, 10]: 7 fold | urine output per 30 minute period ([8]; congestive heart failure, 3 hours after stopping the infusion (pre-infusion 30 mls)): 320 mls | increase of sodium excretion ([8]; human subjects with congestive heart failure): three-to-eight | time after stopping the infusion for which diuresis / urine flow is still significantly (P<0.01) elevated ([8]; humans with congestive heart failure): at least 3 hours | cyclic GMP levels [9]: increase cyclic GMP levels
